The source of these data is patent US9957270B2, “Fused pyrimidine-based hydroxamate derivatives” (Agency for Science, Technology and Research, priority 2014, dated 2018).

The test system of one assay is COLO 205. Kind of assay: cells. To be noted: Homo sapiens, COLO 205, 72 h, read-out: In Vitro Cellular IC50 COLO 205.
In another assay the test system is MV-4-11. Kind of assay: cells. As to conditions: Homo sapiens, MV4-11, 72 h, read-out: In Vitro Cellular IC50 MV-4-11.
The subject of the next assay is MCF7. Kind of assay: Anti-proliferative assay (cellular IC50), MCF7. As to conditions: Homo sapiens, MCF7, 72 h, read-out: In Vitro Cellular IC50 MCF7.
For a further assay, the system named is K-562. The assay can be described thus: Anti-proliferative assay (cellular IC50), K-562. As to conditions: Homo sapiens, K562, 72 h, read-out: In Vitro Cellular IC50 K-562.
The target in assay [1] is HDAC (HeLa nuclear extracts). Kind of assay: HDAC enzyme assay, HeLa nuclear extracts. As to conditions: read-out: In Vitro Enzymatic IC50 HDAC (HeLa).
The test system of a further assay is PC-3. The assay can be described thus: Anti-proliferative assay (cellular IC50), PC-3. As to conditions: Homo sapiens, PC-3, 72 h, read-out: In Vitro Cellular IC50 PC-3.

SMILES strings stand for the structures.

Broadly, the IC50 is the concentration at which inhibition is half-maximal.

Method for MCF7: Cells were cultivated at 37° C., 5% CO2 in media containing 10% FBS and 2 mM glutamine Cells were routinely monitored with MycoAlert™ PLUS Mycoplasma Detection Kit (Lonza Walkersville, Inc.) to make sure they were mycoplasma free. Antibiotics (100 U/mL of penicillin and 100 μg/mL of streptomycin) were only added to the media used for compound dilution and cells in 96-well assay plates.
For a typical screening experiment, cells (100 μL/well) are inoculated into 96 well microtiter plates at plating densities ranging from 2,000 to 30,000 cells/well depending on the doubling time of individual cell lines and assay linearity. […] Suspension cells are treated with test compounds immediately after cell inoculation.
Test compounds are serially diluted (3-fold or 4-fold, 8-concentration) using the same media and added to the plates (15 to 25 μL/well). After 72 h of cultivation, the plates are assayed for cell cytotoxicity/viability by using the following two methods.
Cells in plates are fixed with cold trichloroacetic acid (TCA) (50% w/v in DI water, 1/4 volume of the medium in each well), and incubated at 4° C. for 1 h (adherent cells) or 2 h (suspension cells). The plates are washed 5 times (tap water×3, DI water×2) and air-dried. SRB solution 0.4% (w/v) in 1% acetic acid is added to each well (60 μL/well) and the plates are incubated at room temperature for 30 min, then washed with 1% acetic acid solution 4 times, and air-dried.
The plates are added CellTiter-Glo® Reagent (95 μL/well) and read the luminescence on a BioTek H4 reader per manufacture's protocol.
The raw data are processed using BioTek's Software Gen5 (v2.03.01) to generate inhibitory IC50 values.

In the case of `Cc1c(CN2CCN(C(=O)[C@H](C)O)CC2)sc2c(N3CCOCC3)nc(-c3cnc(N)nc3)nc12` [GDC-0980, reference compound], the IC50 with COLO 205 is less than 0.5 µM; in the assay on MV-4-11, more than 10 µM; with MCF7 it was 2 to 10 µM; in the assay on K-562, 2 to 10 µM.

Turning to `CC(C)n1cnc2c(-c3cccc(NC(=O)CCCCCCCC(=O)NO)c3)nc(N3CCOCC3)nc21` [compound 8, N^1-hydroxy-N^9-(3-(9-isopropyl-2-morpholino-9H-purin-6-yl)phenyl)nonanediamide], the IC50 in assay [1] was 0.01 to 0.1 µM.

Regarding `CC(C)n1cnc2c(-c3cccc(NC(=O)CCCC(=O)NO)c3)nc(N3CCOCC3)nc21` [compound 9, N^1-hydroxy-N^5-(3-(9-isopropyl-2-morpholino-9H-purin-6-yl)phenyl)glutaramide], the IC50 in assay [1] lay within 0.1 to 1 µM.

As to `CC(C)n1cnc2c(-c3cccc(OCCCCCC(=O)NO)c3)nc(N3CCOCC3)nc21` [compound 11, N-hydroxy-6-(3-(9-isopropyl-2-morpholino-9H-purin-6-yl)phenoxy)hexanamide], in assay [1], the IC50 fell in the range of 0.01 to 0.1 µM.

For the compound `CC(C)n1cnc2c(-c3cccc(OCCCCCCC(=O)NO)c3)nc(N3CCOCC3)nc21` [compound 12, N-hydroxy-7-(3-(9-isopropyl-2-morpholino-9H-purin-6-yl)phenoxy)heptanamide], in assay [1], the IC50 was 0.01 to 0.1 µM.

Regarding `CC(C)n1cnc2c(-c3ccc(OCCCC(=O)NO)cc3)nc(N3CCOCC3)nc21` [compound 13, N-hydroxy-4-(4-(9-isopropyl-2-morpholino-9H-purin-6-yl)phenoxy)butanamide], the IC50 in assay [1] fell in the range of 1 to 10 µM.

For `CC(C)n1cnc2c(-c3ccc(OCCCCC(=O)NO)cc3)nc(N3CCOCC3)nc21` [compound 14, N-hydroxy-5-(4-(9-isopropyl-2-morpholino-9H-purin-6-yl)phenoxy)pentanamide], the IC50 in assay [1] lay in the range of 0.1 to 1 µM.

For the compound `CC(C)n1cnc2c(-c3ccc(OCCCCCC(=O)NO)cc3)nc(N3CCOCC3)nc21` [compound 15, N-hydroxy-6-(4-(9-isopropyl-2-morpholino-9H-purin-6-yl)phenoxy)hexanamide], the IC50 in assay [1] lay in the range of 0.1 to 1 µM.

For `CC(C)n1cnc2c(-c3ccc(OCCCCCCC(=O)NO)cc3)nc(N3CCOCC3)nc21` [compound 16, N-hydroxy-7-(4-(9-isopropyl-2-morpholino-9H-purin-6-yl)phenoxy)heptanamide], the IC50 in assay [1] fell in the range of 0.1 to 1 µM.

Take `CC(C)n1cnc2c(-c3ccc(COCCCCC(=O)NO)cc3)nc(N3CCOCC3)nc21` [compound 20, N-hydroxy-5-((4-(9-isopropyl-2-morpholino-9H-purin-6-yl)benzyl)oxy)pentanamide]: in assay [1], the IC50 lay in the range of 0.1 to 1 µM.

In the case of `CC(C)n1cnc2c(-c3ccc(COCCCCCC(=O)NO)cc3)nc(N3CCOCC3)nc21` [compound 21, N-hydroxy-6-((4-(9-isopropyl-2-morpholino-9H-purin-6-yl)benzyl)oxy)hexanamide], the IC50 in assay [1] lay in the range of 0.1 to 1 µM.

Take `CC(C)n1cnc2c(-c3ccc(COCCCCCCC(=O)NO)cc3)nc(N3CCOCC3)nc21` [compound 22, N-hydroxy-7-((4-(9-isopropyl-2-morpholino-9H-purin-6-yl)benzyl)oxy)heptanamide]: in assay [1], the IC50 was 1 to 10 µM.

Turning to `CC(C)n1cnc2c(-c3ccc(COCC(=O)NO)cc3)nc(N3CCOCC3)nc21` [compound 32, N-hydroxy-2-((4-(9-isopropyl-2-morpholino-9H-purin-6-yl)benzyl)oxy)acetamide], the IC50 in assay [1] lay in the range of 1 to 10 µM.

For `CC(C)n1cnc2c(-c3ccc(OCC(=O)NO)cc3)nc(N3CCOCC3)nc21` [compound 33, N-hydroxy-2-(4-(9-isopropyl-2-morpholino-9H-purin-6-yl)phenoxy)acetamide], the IC50 in assay [1] fell in the range of 1 to 10 µM.

For the compound `CC(C)n1cnc2c(-c3cccc(CN4CCC(C(=O)NO)CC4)c3)nc(N3CCOCC3)nc21` [compound 34, N-hydroxy-1-(3-(9-isopropyl-2-morpholino-9H-purin-6-yl)benzyl)piperidine-4-carboxamide], in assay [1], the IC50 is 1 to 10 µM.

As to `CC(C)n1cnc2c(-c3cccc(CNCc4ccc(C(=O)NO)cc4)c3)nc(N3CCOCC3)nc21` [compound 35, N-hydroxy-4-(((3-(9-isopropyl-2-morpholino-9H-purin-6-yl)benzyl)amino)methyl)benzamide], the IC50 in assay [1] was 0.1 to 1 µM.

Take `CC(C)n1cnc2c(-c3cccc(CNCCCCCC(=O)NO)c3)nc(N3CCOCC3)nc21` [compound 36, N-hydroxy-6-((3-(9-isopropyl-2-morpholino-9H-purin-6-yl)benzyl)amino)hexanamide]: in assay [1], the IC50 fell in the range of 0.01 to 0.1 µM.

With `CC(C)n1cnc2c(-c3cccc(COCC(=O)NO)c3)nc(N3CCOCC3)nc21` [compound 42, N-hydroxy-2-((3-(9-isopropyl-2-morpholino-9H-purin-6-yl)benzyl)oxy)acetamide], the IC50 in assay [1] lay in the range of 0.1 to 1 µM.

Consider `COc1ccc(-c2nc(N3CCOCC3)c3ncn(CCCCC(=O)NO)c3n2)cn1` [compound 58, N-hydroxy-5-(2-(6-methoxypyridin-3-yl)-6-morpholino-9H-purin-9-yl)pentanamide], for which the IC50 in the assay with COLO 205 was 2 to 10 µM; in the assay on MV-4-11, 0.5 to 2 µM; in assay [1], 0.1 to 1 µM; with K-562, 2 to 10 µM.

`Nc1ccc(-c2nc(N3CCOCC3)c3ncn(CCCCC(=O)NO)c3n2)cn1` [compound 59, 5-(2-(6-aminopyridin-3-yl)-6-morpholino-9H-purin-9-yl)-N-hydroxypentanamide]: the IC50 was more than 10 µM in the assay with COLO 205, 0.5 to 2 µM with MV-4-11, 1 to 10 µM in assay [1] and more than 10 µM in the assay on K-562.

For the compound `CC(C)n1cnc2c(-c3ccc(F)c(OCCCC(=O)NO)c3)nc(N3CCCC3)nc21` [compound 63, 4-(2-fluoro-5-(9-isopropyl-2-(pyrrolidin-1-yl)-9H-purin-6-yl)phenoxy)-N-hydroxybutanamide], the IC50 in the assay with COLO 205 lay in the range of 2 to 10 µM; with MV-4-11, 0.5 to 2 µM; in assay [1] it was 0.01 to 0.1 µM; in the assay with PC-3, 2 to 10 µM.

With `O=C(CCCCCn1cnc2c(N3CCOCC3)nc(-c3ccc(F)c(OCCO)c3)nc21)NO` [compound 65, 6-(2-(4-fluoro-3-(2-hydroxyethoxy)phenyl)-6-morpholino-9H-purin-9-yl)-N-hydroxyhexanamide], the IC50 is more than 10 µM in the assay with COLO 205, more than 10 µM in the assay with MV-4-11, less than 0.01 µM in assay [1] and more than 10 µM with PC-3.

On to `CCCn1cnc2c(-c3ccc(F)c(OCCCC(=O)NO)c3)nc(N3CCCC3)nc21` [compound 66, 4-(2-fluoro-5-(9-propyl-2-(pyrrolidin-1-yl)-9H-purin-6-yl)phenoxy)-N-hydroxybutanamide], for which the IC50 in the assay on COLO 205 was in the range of 2 to 10 µM; with MV-4-11 it was 0.5 to 2 µM; in assay [1], 0.1 to 1 µM; with PC-3, 2 to 10 µM.

With `CCn1cnc2c(-c3ccc(F)c(OCCCC(=O)NO)c3)nc(N3CCOCC3)nc21` [compound 68, 4-(5-(9-ethyl-2-morpholino-9H-purin-6-yl)-2-fluorophenoxy)-N-hydroxybutanamide], the IC50 in the assay on COLO 205 is 2 to 10 µM; with MV-4-11 it was 0.5 to 2 µM; in assay [1], 0.1 to 1 µM; in the assay with PC-3 it was 2 to 10 µM.

Regarding `CCCn1cnc2c(-c3ccc(F)c(OCCCC(=O)NO)c3)nc(N3CCOCC3)nc21` [compound 69, 4-(2-fluoro-5-(2-morpholino-9-propyl-9H-purin-6-yl)phenoxy)-N-hydroxybutanamide], the IC50 in the assay with COLO 205 was in the range of 2 to 10 µM; in the assay on MV-4-11, 0.5 to 2 µM; in assay [1], 0.1 to 1 µM; in the assay with PC-3, 2 to 10 µM.

For `CCn1c(CN(C)Cc2ccc(/C=C/C(=O)NO)cc2)nc2c(N3CCOCC3)nc(-c3ccc(OC)nc3)nc21` [compound 93, (E)-3-(4-((((9-ethyl-2-(6-methoxypyridin-3-yl)-6-morpholino-9H-purin-8-yl)methyl)(methyl)amino)methyl)phenyl)-N-hydroxyacrylamide], the IC50 in the assay on COLO 205 is 2 to 10 µM; in the assay with MV-4-11 it was 0.5 to 2 µM; in assay [1], 1 to 10 µM; with MCF7 it was 2 to 10 µM; in the assay on PC-3 it was 2 to 10 µM; with K-562, 2 to 10 µM.

`CCn1c(CN(C)Cc2ccc(/C=C/C(=O)NO)cc2)nc2c(N3CCOCC3)nc(-c3ccc(NS(C)(=O)=O)cc3)nc21` [compound 94, (E)-3-(4-((((9-ethyl-2-(4-(methylsulfonamido)phenyl)-6-morpholino-9H-purin-8-yl)methyl)(methyl)amino)methyl)phenyl)-N-hydroxyacrylamide]: the IC50 lay in the range of 2 to 10 µM in the assay on COLO 205, 0.5 to 2 µM in the assay with MV-4-11, 0.1 to 1 µM in assay [1] and 2 to 10 µM with K-562.

`CCn1c(CN(C)Cc2ccc(/C=C/C(=O)NO)cc2)nc2c(N3CCOCC3)nc(Cl)nc21` [compound 95, (E)-3-(4-((((2-chloro-9-ethyl-6-morpholino-9H-purin-8-yl)methyl)(methyl)amino)methyl)phenyl)-N-hydroxyacrylamide]: the IC50 with COLO 205 was more than 10 µM; in the assay on MV-4-11 it was 0.5 to 2 µM; in assay [1], 0.1 to 1 µM; in the assay on K-562, 2 to 10 µM.

For the compound `O=C(CCCCCCn1cnc2c(N3CCCC3)nc(N3CCCC3)nc21)NO` [compound 99, 7-(2,6-di(pyrrolidin-1-yl)-9H-purin-9-yl)-N-hydroxyheptanamide], the IC50 with COLO 205 is 2 to 10 µM; in the assay on MV-4-11, 0.5 to 2 µM; in assay [1] it was less than 0.01 µM; in the assay with PC-3, 2 to 10 µM.
